For 45 compounds, EC50 results are on record in patent US20240368096A1 (Enanta Pharmaceuticals, Inc., priority 2022, published 2024).

pEC50: −log10 of the molar value.

The subject of this assay is HBV. Put plainly: HBV infection in HepG2-NTCP cells (HBeAg AlphaLISA in supernatants). The following applies: Hepatitis B virus, 192 h; HBV infection of HepG2-NTCP cells; HBeAg in supernatants at day 8 post infection; read-out: Cellular EC50. It counts as cell-based. Summed up:
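Readout was day-8 supernatant HBeAg by AlphaLISA, with EC50 set against DMSO controls and binned A<0.1 μM, B 0.1-1 μM, C>1 μM. Compounds were added 2 h before HBV (2000 GE/cell, 4% PEG, 0.5% DMSO) to HepG2-NTCP A3 cells; from day 1 medium held 2.5% DMSO.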
On to `CC(C)C[C@@H]1CN(c2ccccc2)c2cc(O[C@H]3CCOC3)c(-c3ccc(F)c(C(=O)O)c3)cc2S(=O)(=O)N1C` [Example 446], for which the pEC50 is 6.00 to 7.00.

Consider `CC(C)C[C@@H]1CN(c2ccccc2)c2cc(N3CCc4ccccc43)c(-c3ccc(Cl)c(C(=O)O)c3)cc2S(=O)(=O)N1C` [Example 551], for which the pEC50 was 6.00 to 7.00.

In the case of `CSc1cc2c(cc1-c1cccc(C(=O)O)c1)S(=O)(=O)N1CC3(CC3)CC1CN2c1ccccc1` (stereo not drawn) [Example 18, 3-(8-(methylthio)-5,5-dioxido-10-phenyl-1,10,11,11a-tetrahydro-3H-spiro[benzo[f]pyrrolo[1,2-b][1,2,5]thiadiazepine-2,1′-cyclopropan]-7-yl)benzoic acid], the pEC50 was 6.00 to 7.00.

On to `CC(C)CC1CN(c2ccccc2)c2cc(C#N)c(-c3cccc(C(=O)O)c3)cc2S(=O)(=O)N1C` (stereo not drawn) [Example 14], for which the pEC50 is 6.00 to 7.00.

On to `CC(C)OCCOc1cc2c(cc1-c1cc(F)c(C(=O)O)s1)S(=O)(=O)N(C)[C@H](C1CCCCC1)CN2c1ccccc1` [Example 497], for which the pEC50 is above 7.00.

In the case of `CN1[C@H](C2CCCCC2)CN(c2ccccc2)c2cc(Cl)c(-c3cc(C(=O)O)nn3C)cc2S1(=O)=O` [Example 133, (R)-5-(7-chloro-3-cyclohexyl-2-methyl-1,1-dioxido-5-phenyl-2,3,4,5-tetrahydrobenzo[f][1,2,5]thiadiazepin-8-yl)-1-methyl-1H-pyrazole-3-carboxylic acid], the pEC50 is 6.00 to 7.00.

Consider `CN1[C@H](C2CCCCC2)CN(C2CCC2)c2cc(Cl)c(-c3ccc(F)c(C(=O)O)c3)cc2S1(=O)=O` [Example 322], for which the pEC50 is 6.00 to 7.00.

As for `CC(C)CS(=O)(=O)Nc1cc(-c2cc3c(cc2Cl)N(c2ccccc2)C[C@@H](C2CCCCC2)N(C)S3(=O)=O)sc1C(=O)O` [Example 276], the pEC50 is above 7.00.

Turning to `CC(C)C[C@@H]1CN(c2ccccc2)c2cc(O[C@@H]3C[C@H](C)CCC3C(C)C)c(-c3ccc(F)c(C(=O)O)c3)cc2S(=O)(=O)N1C` (stereo partly drawn) [Example 442], the pEC50 is above 7.00.

Consider `CN1[C@H](C2CCCCC2)CN(c2ccccc2)c2cc(OCCc3cn(C)cn3)c(-c3ccc(F)c(C(=O)O)c3)cc2S1(=O)=O` [Example 392], for which the negative-log EC50 (pEC50) was below 6.00.

On to `CN1C(c2cnn(C)c2)CN(c2ccccc2)c2cc(Cl)c(-c3ccc(F)c(C(=O)O)c3)cc2S1(=O)=O` (stereo not drawn) [Example 79], for which the pEC50 was 6.00 to 7.00.

For the compound `CN1[C@@H](CC2CC2)CN(c2ccccc2)c2cc(Cl)c(-c3ccc(F)c(C(=O)O)c3)cc2S1(=O)=O` [Example 42], the pEC50 is below 6.00.

As to `CN1[C@H](C2CCCCC2)CN(c2ccccc2)c2cc(OCc3cscc3Cl)c(-c3cc(F)c(C(=O)O)s3)cc2S1(=O)=O` [Example 494], the pEC50 was above 7.00.

As to `CCCC[C@@H]1CN(c2ccccc2)c2cc(Oc3cccc(Cl)c3)c(-c3ccc(F)c(C(=O)O)c3)cc2S(=O)(=O)N1C` [Example 423], the pEC50 is above 7.00.

For `CO[C@H]1C[C@@H](N2C[C@@H](CC(C)C)N(C)S(=O)(=O)c3cc(-c4ccc(F)c(C(=O)O)c4)c(Oc4ccccc4F)cc32)C1` [Example 473], the pEC50 was 6.00 to 7.00.

As for `Cc1cc(N2C[C@@H](C3CCCCC3)N(C)S(=O)(=O)c3cc(-c4ccc(F)c(C(=O)O)c4)c(Cl)cc32)ccn1` [Example 285], the pEC50 was below 6.00.

Turning to `CN1[C@H](C2CCCCC2)CN(c2ccccc2)c2cc(Cl)c(-c3cc(C(=O)O)ccc3F)cc2S1(=O)=O` [Example 150, (R)-3-(7-chloro-3-cyclohexyl-2-methyl-1,1-dioxido-5-phenyl-2,3,4,5-tetrahydrobenzo[f][1,2,5]thiadiazepin-8-yl)-4-fluorobenzoic acid], the pEC50 was above 7.00.

As for `CO[C@H]1C[C@H](Oc2cc3c(cc2-c2ccc(F)c(C(=O)O)c2)S(=O)(=O)N(C)[C@H](C2CCCCC2)CN3c2ccccc2)C1` [Example 378], the negative-log EC50 (pEC50) was 6.00 to 7.00.

`CC(C)C[C@@H]1CN(c2ccccc2)c2cc(Cl)c(-c3cccc(P(=O)(O)O)c3)cc2S(=O)(=O)N1C` [Example 233]: the pEC50 was 6.00 to 7.00.

For `CN1[C@H](C2CCCCC2)CN(c2ccccc2)c2cc(Cl)c(-c3ccc(NS(=O)(=O)CCc4ccccc4)c(C(=O)O)c3)cc2S1(=O)=O` [Example 270], the pEC50 was above 7.00.

With `CC(C)C[C@@H]1CN(c2ccccc2)c2cc(OCC(F)(F)F)c(-c3ccc(F)c(C(=O)O)c3)cc2S(=O)(=O)N1C` [Example 453], the pEC50 is above 7.00.

For the compound `CC(C)CC1CN(C2CCCC2)c2cc(Cl)c(-c3cccc(C(=O)O)c3)cc2S(=O)(=O)N1C` (stereo not drawn) [Example 326, 3-(7-chloro-5-cyclopentyl-3-isobutyl-2-methyl-1,1-dioxido-2,3,4,5-tetrahydrobenzo[f][1,2,5]thiadiazepin-8-yl)benzoic acid], the pEC50 is 6.00 to 7.00.

Turning to `CN1[C@H](COC(C)(C)C)CN(c2ccccc2)c2cc(Cl)c(-c3ccc(F)c(C(=O)O)c3)cc2S1(=O)=O` [Example 101, (S)-5-(3-(tert-butoxymethyl)-7-chloro-2-methyl-1,1-dioxido-5-phenyl-2,3,4,5-tetrahydrobenzo[f][1,2,5]thiadiazepin-8-yl)-2-fluorobenzoic acid], the pEC50 was 6.00 to 7.00.

For `COCC(C)(C)COC(=O)Nc1cc(-c2cc3c(cc2Cl)N(c2ccccc2)C[C@@H](C2CCCCC2)N(C)S3(=O)=O)sc1C(=O)O` [Example 260], the pEC50 was 6.00 to 7.00.

As to `O=C(O)c1cncc(-c2cc3c(cc2F)N(c2ccccc2)CC2CC4(CC4)CN2S3(=O)=O)c1` (stereo not drawn) [Example 6], the negative logarithm of the EC50 (pEC50) was below 6.00.

For the compound `Cc1cncc(N2C[C@@H](C3CCCCC3)N(C)S(=O)(=O)c3cc(-c4ccc(F)c(C(=O)O)c4)c(Cl)cc32)c1` [Example 281], the pEC50 was above 7.00.

Take `CSc1cc2c(cc1-c1cccc(C(=O)O)c1)S(=O)(=O)N1C[C@@H](C(F)(F)F)C[C@H]1CN2c1ccccc1` [Example 24]: the pEC50 was below 6.00.

Turning to `CN1[C@H](C2CCCCC2)CN(c2ccnc(F)c2)c2cc(Cl)c(-c3ccc(F)c(C(=O)O)c3)cc2S1(=O)=O` [Example 284], the pEC50 is above 7.00.

For `COCCOCCOc1cc2c(cc1-c1cc(F)c(C(=O)O)s1)S(=O)(=O)N(C)[C@H](C1CCCCC1)CN2c1ccccc1` [Example 498], the pEC50 is above 7.00.

In the case of `CC(C)CC1CN(c2ccccc2)c2cc(Cl)c(-c3ccc(Cl)c(C(=O)O)c3)cc2S(=O)(=O)N1C` (stereo not drawn) [Example 38], the pEC50 is above 7.00.

On to `CN1C(C23CC(C(F)(F)F)(C2)C3)CN(c2ccccc2)c2cc(Cl)c(-c3ccc(F)c(C(=O)O)c3)cc2S1(=O)=O` (stereo not drawn) [Example 87], for which the pEC50 is 6.00 to 7.00.

Regarding `CC(C)OC[C@@H]1CN(c2ccccc2)c2cc(Cl)c(-c3ccc(F)c(C(=O)O)c3)cc2S(=O)(=O)N1C` [Example 96, (S)-5-(7-chloro-3-(isopropoxymethyl)-2-methyl-1,1-dioxido-5-phenyl-2,3,4,5-tetrahydrobenzo[f][1,2,5]thiadiazepin-8-yl)-2-fluorobenzoic acid], the negative logarithm of the EC50 (pEC50) was 6.00 to 7.00.

With `CN1[C@H](C2CCC2)CN(c2ccccc2)c2cc(Cl)c(-c3ccc(C(F)(F)F)c(C(=O)O)c3)cc2S1(=O)=O` [Example 204], the pEC50 is above 7.00.

For the compound `CN1[C@H](C2CCCCC2)CN(c2ccccc2)c2cc(OC3CN(C(=O)OC(C)(C)C)C3)c(-c3ccc(F)c(C(=O)O)c3)cc2S1(=O)=O` [Example 398], the pEC50 was above 7.00.

As to `CCCCCCCOc1cc2c(cc1-c1cc(F)c(C(=O)O)s1)S(=O)(=O)N(C)[C@H](C1CCCCC1)CN2c1ccccc1` [Example 485], the negative-log EC50 (pEC50) is above 7.00.

In the case of `CN1[C@H](C2CCCCC2)CN(c2ccccc2)c2cc(Cl)c(-c3ccc(F)c(C(=O)O)n3)cc2S1(=O)=O` [Example 141, (R)-6-(7-chloro-3-cyclohexyl-2-methyl-1,1-dioxido-5-phenyl-2,3,4,5-tetrahydrobenzo[f][1,2,5]thiadiazepin-8-yl)-3-fluoropicolinic acid], the pEC50 was 6.00 to 7.00.

Turning to `CC(C)COC(=O)Nc1c(F)cc(-c2cc3c(cc2Cl)N(c2ccccc2)C[C@@H](C2CCCCC2)N(C)S3(=O)=O)cc1C(=O)O` [Example 277], the pEC50 is above 7.00.

For the compound `CN1[C@H](C2CCCCC2)CN(c2ccccc2)c2cc(Cl)c(-c3cc(C(=O)O)c4nccn4c3)cc2S1(=O)=O` [Example 211], the pEC50 is 6.00 to 7.00.

With `CCC1CN(c2ccccc2)c2cc(Cl)c(-c3ccc(F)c(C(=O)O)c3)cc2S(=O)(=O)N1C` (stereo not drawn) [Example 45], the pEC50 is below 6.00.

Take `CN1[C@H](C2CCCCC2)CN(c2ccc(C(F)(F)F)cc2F)c2cc(Cl)c(-c3ccc(F)c(C(=O)O)c3)cc2S1(=O)=O` [Example 302]: the pEC50 is 6.00 to 7.00.

With `COCCOc1cc2c(cc1-c1ccc(NC(=O)OCc3ccccc3)c(C(=O)O)c1)S(=O)(=O)N(C)[C@H](C1CCCCC1)CN2c1ccccc1` [Example 478, (R)-2-(((benzyloxy)carbonyl)amino)-5-(3-cyclohexyl-7-(2-methoxyethoxy)-2-methyl-1,1-dioxido-5-phenyl-2,3,4,5-tetrahydrobenzo[f][1,2,5]thiadiazepin-8-yl)benzoic acid], the negative logarithm of the EC50 (pEC50) was above 7.00.

`CC(C)NC(=O)N1CCC(Oc2cc3c(cc2-c2ccc(F)c(C(=O)O)c2)S(=O)(=O)N(C)[C@H](C2CCCCC2)CN3c2ccccc2)CC1` [Example 400, (R)-5-(3-cyclohexyl-7-((1-(isopropylcarbamoyl)piperidin-4-yl)oxy)-2-methyl-1,1-dioxido-5-phenyl-2,3,4,5-tetrahydrobenzo[f][1,2,5]thiadiazepin-8-yl)-2-fluorobenzoic acid]: the pEC50 was 6.00 to 7.00.

On to `CN1[C@H](C2CCCCC2)CN(c2ccccc2)c2cc(Cl)c(-c3ccc(NS(=O)(=O)Cc4ccccc4)c(C(=O)O)c3)cc2S1(=O)=O` [Example 269], for which the pEC50 is above 7.00.

On to `CC(C)C[C@@H]1CN(c2ccccc2)c2cc(Cl)c(-c3cccc(CC(=O)O)c3)cc2S(=O)(=O)N1C` [Example 173], for which the negative logarithm of the EC50 (pEC50) is below 6.00.

As to `Cc1cc(-c2cc3c(cc2Cl)N(c2ccccc2)C[C@@H](C2CCCCC2)N(C)S3(=O)=O)oc1C(=O)O` [Example 124], the pEC50 was above 7.00.

In general, pEC50 refers to the negative decadic logarithm of the EC50, by convention in mol/L.
